From article PMC6718988, “Bioactivity and Bactericidal Mechanism of Histidine-Rich β-Hairpin Peptide Against Gram-Negative Bacteria” (International Journal of Molecular Sciences, 2019)
Where a SMILES comes first, the peptide text is derived from it. [ ]: non-standard residue; d: D form.

Experiments:
[1] = test system: Gram-positive and Gram-negative bacteria; details: 24 h
Experimental: (§1) The minimum inhibitory concentration (MIC) was measured using a broth microdilution method to determine the in vitro antimicrobial activity of the peptides. Bacteria were inoculated into MHB and incubated overnight at 37 °C until the bacteria were in log phase growth. Next, we corrected the bacterial concentration to approximately 1 × 10^5 CFU/mL using MHB. The peptides were added to 96-well plates containing 0.01% acetic acid and 0.2% bovine serum albumin at final concentrations ranging from 0.25 to 128 μM. After incubation at 37 °C for 24 h, the absorbance was measured at 492 nm using a microplate reader (Tecan GENios F129004, Tecan, Austria). Broth containing microbes and […] were used as positive and negative controls, respectively. The lowest peptide concentration with no increase in absorbance compared to that of the negative control was defined as the MIC. The experiments were independently performed three times.

Gram-positive bacteria = details: 24 h
Experimental: as §1

E. coli ATCC25922 [2] = assay: Salt sensitivity assay (MIC in presence of physiological salts); assay type: cell-based; design: unit not given here
Experimental: Bacteria were inoculated into MHB and incubated overnight at 37 °C until the bacteria were in log phase growth. Next, we corrected the bacterial concentration to approximately 1 × 10^5 CFU/mL using MHB. […] After incubation at 37 °C for 24 h, the absorbance was measured at 492 nm using a microplate reader (Tecan GENios F129004, Tecan, Austria). Broth containing microbes and […] were used as positive and negative controls, respectively. The lowest peptide concentration with no increase in absorbance compared to that of the negative control was defined as the MIC. The experiments were independently performed three times. The effects of salt ions on the antibacterial activities of the antimicrobial peptides were evaluated. Different salt ion concentrations were added to BSA peptide dilutions, and the next steps followed the MIC measurement method. […] These tests were independently repeated three times.

E. coli ATCC25922 [3] = assay: Swimming motility assay; assay type: cell-based; details: E. coli ATCC25922, 0.3% agar, 1–8 μM peptide, 37 °C, 20 h; versus untreated control
Experimental: The cell motility assay was performed on LB medium containing 0.3% agar. The peptides were added to 10 mL of medium at final concentrations of 1–8 μM. After mixing well, the mixtures were poured into 6-well plates and dried for 2 h. Subsequently, an overnight culture of E. coli ATCC 25922 was inoculated in the center of the movement plate. After incubation at 37 °C for 20 h, images were taken using a FluoroChemQ system (Cell biosciences, San Jose, CA, USA). The experiment was independently repeated three times.

E. coli ATCC25922 [4] = assay: SEM characterization of cell morphology; assay type: cell-based; details: E. coli ATCC25922, 1 × MIC (HV2 8 μM, PG-1 4 μM), 1 h
Experimental: For the SEM sample preparation, E. coli ATCC25922 cells were cultured at 37 °C to mid-log phase in MH broth with constant shaking at 220 rpm, centrifuged at 1000 g and then adjusted to an OD600 of 0.1–0.2 in PBS. […] Bacteria incubated with PBS served as controls. After the incubation, the mixture was centrifuged at 5000 g for 5 min, and the collected bacteria were washed three times with PBS. Approximately 2.5% (w/v) glutaraldehyde was added for fixation at 4 °C overnight, followed by washing three times with PBS. The samples were dehydrated with 50%, 70%, 90%, 100% ethanol for 10 min. A mixture of ethanol and tert-butanol was added to the dried bacterial cells for 30 min, and then t-butanol was added for 1 h. Finally, the samples were dehydrated and coated with liquid CO2 in a critical point dryer and then observed using a Hitachi S-4800 SEM (Hitachi, Tokyo, Japan).

Q: What does the source list for `CC(C)[C@H](NC(=O)CNC(=O)[C@H]1CCCN1C(=O)[C@@H](NC(=O)[C@H](Cc1c[nH]cn1)NC(=O)[C@@H](NC(=O)[C@H](Cc1c[nH]cn1)NC(=O)[C@@H](NC(=O)[C@H](CCCNC(=N)N)NC(=O)[C@@H](N)CCCNC(=N)N)C(C)C)C(C)C)C(C)C)C(=O)N[C@@H](Cc1c[nH]cn1)C(=O)N[C@H](C(=O)N[C@@H](Cc1c[nH]cn1)C(=O)N[C@H](C(=O)N[C@@H](CCCNC(=N)N)C(=O)N[C@@H](CCCNC(=N)N)C(N)=O)C(C)C)C(C)C` [HV2] (H-RRVHVHV[dP]GVHVHVRR-NH2; N-terminus assumed)?
A: MBC (GM), geometric mean of MICs, Gram (+,−) [1]: 23.52 µM; MBC (GM), geometric mean of MICs, Gram (+) (Gram-positive bacteria): 256 µM; MIC, FeCl3 (E. coli ATCC25922 [2]; E. coli ATCC25922, 4 μM FeCl3, unit not given): 4; MIC, NH4Cl (E. coli ATCC25922 [2]; E. coli ATCC25922, 6 μM NH4Cl, unit not given): 4; MIC, ZnCl2 (E. coli ATCC25922 [2]; E. coli ATCC25922, 8 μM ZnCl2, unit not given): 1; MIC, MgCl2 (E. coli ATCC25922 [2]; E. coli ATCC25922, 1 mM MgCl2, unit not given): 8; MIC, KCl (E. coli ATCC25922 [2]; E. coli ATCC25922, 4.5 mM KCl, unit not given): 4; MIC, NaCl (E. coli ATCC25922 [2]; E. coli ATCC25922, 150 mM NaCl, unit not given): 4; MIC, Control (E. coli ATCC25922 [2]; E. coli ATCC25922, absence of physiological salts, no unit printed in Table 3 (Table 2 MIC in μM)): 8; swimming motility (diameter of swimming bacteria) (E. coli ATCC25922 [3]): significantly reduced the diameter of the swimming bacteria; cell morphology by SEM (E. coli ATCC25922 [4]): rough and wrinkled
